Test results reported in patent EP4568957B1, “SUBSTITUTED PHENYL OXOOXAZOLYL PIPERIDINE DIONE COMPOUNDS” (Bristol-Myers Squibb Company, priority 2023, dated 2025).

Assays:
Test in all cases: Human Regulatory T Cell Degradation Assay
Assay type in all cases: cell-based
Settings in all cases: human regulatory T cells, 20 hours; for DC50: vs DMSO alone
IKZF4 Eos = target: T1, IKZF4 Eos (Homo sapiens, UniProt Q96SW2+Q9H2S9)
T1 construct: endogenous in cells; host or cells: primary human CD4+CD127lowCD25+ Treg cells from healthy leukopaks

IKZF2 Helios = IKZF2 Helios (Homo sapiens, UniProt Q96SW2+Q9UKS7); design: endogenous in cells; host or cells: primary human CD4+CD127lowCD25+ Treg cells from healthy leukopaks
Method: Cryopreserved human regulatory T cells were thawed in RPMI + 10%FBS + 20 ng/mL IL-2. After being spun at 1200 rpm for 5 mins, the cells were resuspended in RPMI + 10% FBS+ 20 ng/mL and rested at 37 °C with 5% CO2 for 3 hours. The cells were then plated at 40,000 cells/well in 40 µL RPMI + 10% FBS + 20 ng/mL human IL-2 in a 384 well cell culture plate prior to using acoustic dispensing technology (ECHO 555) for adding compounds of interest. Cell cultures were incubated for 20 hours at 37 °C and 5% CO2. In order to facilitate analysis, cell cultures were spun down at 1200 rpm for 5 minutes and the supernatant was discarded using an EL406 plate washer. After washing three times with 70 µL PBS, cell pellets were resuspended in 50 µL of near IR viability staining solution (Life Technologies, Cat# L34975) and incubated for 30 minutes on ice protected from light. Cells were washed three times with 70 µL PBS + 0.5% BSA using an EL406 plate washer. After shaking the plate to dislodge the cell pellet, cells were resuspended in 50 µL of Fixation Buffer (eBioScience FoxP3 buffer set 00-5523-00) for 60 minutes at room temperature. After centrifuging and discarding the supernatant, cells were permeabilized with 50 µL of permeabilization buffer (eBioScience FoxP3 buffer set 00-5523-00) for 10 minutes at room temperature. Following permeabilization, cells were spun down and the supernatant was replaced with 30 µL fluorescently labelled antibodies against the intracellular targets Helios (Helios-APC [BioLegend, Cat# 137222, 1:50]), Aiolos, and Ikaros lx Permeabilization buffer and staining reactions were incubated for 1 hour at room temperature; protected from light. Subsequently, 30 µL of lx Permeabilization buffer was added prior to centrifuging the cells and discarding the supernatant. Stained cells were resuspended in 30 µL of flow cytometry staining buffer (PBS + 0.5%BSA) and analyzed using an Intellicyt Ique Plus flow cytometer. TABLE B-1

IKZF1 Ikaros = IKZF1 Ikaros (Homo sapiens, UniProt Q13422+Q96SW2); design: Foxp3-BV421, HELIOS-PE-Cy7, EOS-PE, IKAROS-PECF594, AIOLOS-AF647; endogenous in cells; host or cells: human PBMC from healthy donors (CD8+ T cells gated by flow cytometry)
IKZF3 Aiolos = IKZF3 Aiolos (Homo sapiens, UniProt Q96SW2+Q9UKT9); design: Foxp3-BV421, HELIOS-PE-Cy7, EOS-PE, IKAROS-PECF594, AIOLOS-AF647; endogenous in cells; host or cells: human PBMC from healthy donors (CD8+ T cells gated by flow cytometry)
IKZF3 Aiolos, sequence (Q9UKT9 whole entry): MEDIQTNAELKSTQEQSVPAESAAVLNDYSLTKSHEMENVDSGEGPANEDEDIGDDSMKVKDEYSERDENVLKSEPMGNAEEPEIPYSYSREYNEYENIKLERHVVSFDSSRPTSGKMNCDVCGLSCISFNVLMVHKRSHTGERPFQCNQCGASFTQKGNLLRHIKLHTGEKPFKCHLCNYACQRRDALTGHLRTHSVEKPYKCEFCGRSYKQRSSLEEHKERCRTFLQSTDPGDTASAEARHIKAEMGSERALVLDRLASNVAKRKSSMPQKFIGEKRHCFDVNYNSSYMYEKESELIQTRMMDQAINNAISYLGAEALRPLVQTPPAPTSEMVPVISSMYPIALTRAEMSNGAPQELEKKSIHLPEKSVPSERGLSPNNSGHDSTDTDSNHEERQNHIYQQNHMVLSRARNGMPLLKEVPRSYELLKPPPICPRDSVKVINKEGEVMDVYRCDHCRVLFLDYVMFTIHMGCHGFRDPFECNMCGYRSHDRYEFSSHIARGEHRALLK
IKZF3 Aiolos, sequence (Q96SW2 whole entry): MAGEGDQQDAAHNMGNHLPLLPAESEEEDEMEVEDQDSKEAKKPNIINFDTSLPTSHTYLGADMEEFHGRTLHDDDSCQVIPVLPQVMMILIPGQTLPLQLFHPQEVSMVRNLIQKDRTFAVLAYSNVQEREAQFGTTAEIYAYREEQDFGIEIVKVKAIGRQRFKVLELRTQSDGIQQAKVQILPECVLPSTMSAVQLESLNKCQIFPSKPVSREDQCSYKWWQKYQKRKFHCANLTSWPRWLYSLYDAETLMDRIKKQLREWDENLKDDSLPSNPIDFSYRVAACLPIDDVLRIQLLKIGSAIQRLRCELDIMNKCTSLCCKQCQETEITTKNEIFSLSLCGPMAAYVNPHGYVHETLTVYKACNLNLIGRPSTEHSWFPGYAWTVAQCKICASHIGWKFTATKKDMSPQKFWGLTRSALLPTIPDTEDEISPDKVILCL
IKZF3 Aiolos, sequence (Q16531 whole entry partner): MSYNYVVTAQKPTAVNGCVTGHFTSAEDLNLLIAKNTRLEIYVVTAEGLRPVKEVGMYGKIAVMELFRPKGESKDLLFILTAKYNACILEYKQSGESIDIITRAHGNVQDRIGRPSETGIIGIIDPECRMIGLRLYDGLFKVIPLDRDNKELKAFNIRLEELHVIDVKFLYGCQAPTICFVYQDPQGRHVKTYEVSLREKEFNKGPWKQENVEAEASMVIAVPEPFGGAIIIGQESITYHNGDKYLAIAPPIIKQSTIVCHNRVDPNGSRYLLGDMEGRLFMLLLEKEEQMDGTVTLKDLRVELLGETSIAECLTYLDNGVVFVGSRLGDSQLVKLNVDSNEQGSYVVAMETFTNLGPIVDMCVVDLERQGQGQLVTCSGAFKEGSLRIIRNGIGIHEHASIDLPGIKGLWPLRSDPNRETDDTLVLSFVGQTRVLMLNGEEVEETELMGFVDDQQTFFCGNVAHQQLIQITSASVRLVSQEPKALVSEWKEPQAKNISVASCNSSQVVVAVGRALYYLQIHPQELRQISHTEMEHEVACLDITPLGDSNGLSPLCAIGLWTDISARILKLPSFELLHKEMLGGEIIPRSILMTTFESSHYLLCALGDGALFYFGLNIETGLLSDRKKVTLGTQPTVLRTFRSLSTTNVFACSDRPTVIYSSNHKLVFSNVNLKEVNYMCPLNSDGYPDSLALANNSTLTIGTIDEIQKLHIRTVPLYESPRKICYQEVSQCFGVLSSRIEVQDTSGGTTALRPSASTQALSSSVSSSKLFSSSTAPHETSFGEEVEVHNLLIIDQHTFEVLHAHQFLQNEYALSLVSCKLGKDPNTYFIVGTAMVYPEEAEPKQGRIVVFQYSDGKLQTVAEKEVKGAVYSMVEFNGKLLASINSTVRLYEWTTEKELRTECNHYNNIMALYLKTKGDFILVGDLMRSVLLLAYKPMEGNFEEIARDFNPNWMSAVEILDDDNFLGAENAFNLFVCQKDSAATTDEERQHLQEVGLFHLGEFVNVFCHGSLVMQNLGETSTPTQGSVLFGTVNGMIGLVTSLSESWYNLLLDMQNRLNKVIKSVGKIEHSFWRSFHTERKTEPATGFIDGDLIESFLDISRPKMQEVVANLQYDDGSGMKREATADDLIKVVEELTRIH

T1 sequence (Q9H2S9 whole entry): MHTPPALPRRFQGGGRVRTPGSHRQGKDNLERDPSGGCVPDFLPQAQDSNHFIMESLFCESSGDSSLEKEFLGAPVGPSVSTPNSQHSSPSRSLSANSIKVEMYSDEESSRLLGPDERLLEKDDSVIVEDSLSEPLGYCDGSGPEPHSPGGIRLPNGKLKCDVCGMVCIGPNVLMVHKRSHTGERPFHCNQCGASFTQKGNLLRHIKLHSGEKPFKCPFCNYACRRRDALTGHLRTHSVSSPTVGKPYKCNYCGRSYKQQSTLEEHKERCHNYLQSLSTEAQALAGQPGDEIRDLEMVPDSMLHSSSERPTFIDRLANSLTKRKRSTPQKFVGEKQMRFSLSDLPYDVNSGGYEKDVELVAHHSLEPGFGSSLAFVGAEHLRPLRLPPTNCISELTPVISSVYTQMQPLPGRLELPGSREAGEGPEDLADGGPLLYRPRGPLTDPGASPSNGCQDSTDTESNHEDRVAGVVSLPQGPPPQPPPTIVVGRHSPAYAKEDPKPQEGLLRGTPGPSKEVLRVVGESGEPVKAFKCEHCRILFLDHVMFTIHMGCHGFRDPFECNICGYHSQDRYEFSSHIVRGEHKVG
T1 sequence (Q96SW2 whole entry): as the sequence (Q96SW2 whole entry) above
T1 sequence (Q16531 whole entry partner): as the sequence (Q16531 whole entry partner) above
IKZF1 Ikaros, sequence (Q13422 whole entry): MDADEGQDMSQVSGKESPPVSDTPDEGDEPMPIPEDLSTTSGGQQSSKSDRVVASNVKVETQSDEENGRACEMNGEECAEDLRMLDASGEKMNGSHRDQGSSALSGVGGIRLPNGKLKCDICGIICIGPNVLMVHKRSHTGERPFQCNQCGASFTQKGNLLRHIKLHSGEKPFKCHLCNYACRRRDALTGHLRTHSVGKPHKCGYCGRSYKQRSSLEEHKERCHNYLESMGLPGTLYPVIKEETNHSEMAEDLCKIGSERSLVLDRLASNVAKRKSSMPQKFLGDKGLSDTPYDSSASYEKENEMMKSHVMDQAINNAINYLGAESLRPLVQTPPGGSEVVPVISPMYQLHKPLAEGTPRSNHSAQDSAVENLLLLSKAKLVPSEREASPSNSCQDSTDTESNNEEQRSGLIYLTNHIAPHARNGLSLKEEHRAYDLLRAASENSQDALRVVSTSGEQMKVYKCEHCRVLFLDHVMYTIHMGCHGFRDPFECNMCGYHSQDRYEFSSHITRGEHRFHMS
IKZF1 Ikaros, sequence (Q96SW2 whole entry): as the sequence (Q96SW2 whole entry) above
IKZF1 Ikaros, sequence (Q16531 whole entry partner): as the sequence (Q16531 whole entry partner) above
IKZF2 Helios, sequence (Q9UKS7 whole entry): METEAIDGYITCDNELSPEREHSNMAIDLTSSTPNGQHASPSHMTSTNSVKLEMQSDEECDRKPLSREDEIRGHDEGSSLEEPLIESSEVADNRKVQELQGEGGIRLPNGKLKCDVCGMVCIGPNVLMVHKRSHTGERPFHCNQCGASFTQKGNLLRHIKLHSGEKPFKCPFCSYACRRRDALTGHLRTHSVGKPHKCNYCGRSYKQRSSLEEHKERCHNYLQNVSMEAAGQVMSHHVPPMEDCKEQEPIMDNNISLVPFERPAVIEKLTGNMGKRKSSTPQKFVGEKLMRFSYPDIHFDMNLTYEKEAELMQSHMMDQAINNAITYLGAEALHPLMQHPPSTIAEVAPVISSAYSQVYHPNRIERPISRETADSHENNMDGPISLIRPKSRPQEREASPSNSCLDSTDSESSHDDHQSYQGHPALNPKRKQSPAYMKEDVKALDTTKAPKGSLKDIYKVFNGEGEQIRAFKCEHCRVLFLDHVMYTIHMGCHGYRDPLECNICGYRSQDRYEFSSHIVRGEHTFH
IKZF2 Helios, sequence (Q96SW2 whole entry): as the sequence (Q96SW2 whole entry) above
IKZF2 Helios, sequence (Q16531 whole entry partner): as the sequence (Q16531 whole entry partner) above

SMILES | IKZF4 Eos max % deg. observed (IKZF4 Eos) | DC50 (IKZF4 Eos) | IKZF2 Helios max % deg. observed (IKZF2 Helios) | DC50 (IKZF2 Helios) | IKZF1 Ikaros max % deg. observed (IKZF1 Ikaros) | DC50 (IKZF1 Ikaros) | IKZF3 Aiolos max % deg. observed (IKZF3 Aiolos) | DC50 (IKZF3 Aiolos)
Cc1cc(-c2ccc(-c3cn(C4CCC(=O)NC4=O)c(=O)o3)c(F)c2)nc(N)c1NCC1CCOCC1 (stereo not shown) [Example 3, 3-(5-(4-(6-amino-4-methyl-5-(((tetrahydro-2H-pyran-4-yl)methyl)amino)pyridin-2-yl)-2-fluorophenyl)-2-oxooxazol-3(2H)-yl)piperidine-2,6-dione] | 59% | 141 nM | 98% | 51 nM | 58% | 6470 nM | 25% | > 10000 nM
CO[C@H]1C[C@H](Oc2c(C)cc(-c3ccc(-c4cn(C5CCC(=O)NC5=O)c(=O)o4)c(F)c3)nc2N)C1 (relative stereo) [Example 2, trans 3-(5-(4-(6-amino-5-(3-methoxycyclobutoxy)-4-methylpyridin-2-yl)-2-fluorophenyl)-2-oxooxazol-3(2H)-yl)piperidine-2,6-dione] | 62% | 193 nM | 98% | 71 nM | 56% | 950 nM | 25% | > 100000 nM
Cc1cc(-c2ccc(-c3cn(C4CCC(=O)NC4=O)c(=O)o3)c(F)c2)nc(N)c1COC1CCOCC1 (stereo not shown) [Example 5, 3-(5-(4-(6-Amino-4-methyl-5-(((tetrahydro-2H-pyran-4-yl)oxy)methyl)pyridin-2-yl)-2-fluorophenyl)-2-oxooxazol-3(2H)-yl)piperidine-2,6-dione] | 67% | 575 nM | 98% | 46 nM | 52% | 6500 nM | 29% | > 10000 nM
COC1CCN(Cc2ccc(-c3ccc(-c4cn(C5CCC(=O)NC5=O)c(=O)o4)c(F)c3)nc2N)CC1 (stereo not shown) [Example 4, 3-(5-(4-(6-amino-5-((4-methoxypiperidin-1-yl)methyl)pyridin-2-yl)-2-fluorophenyl)-2-oxooxazol-3(2H)-yl)piperidine-2,6-dione] | 62% | 203 nM | 98% | 59 nM | 67% | 3790 nM | 35% | > 10000 nM
CC1(C)Cc2cc(-c3ccc(-c4cn(C5CCC(=O)NC5=O)c(=O)o4)c(F)c3)nc(N)c2O1 (stereo not shown) [Example 1, 3-(5-(4-(7-amino-2,2-dimethyl-2,3-dihydrofuro[2,3-c]pyridin-5-yl)-2-fluorophenyl)-2-oxooxazol-3(2H)-yl)piperidine-2,6-dione] | 56% | 55 nM | 98% | 52 nM | 51% | 8230 nM | 22% | > 10000 nM
